Measured values as given in patent US20120064180A1, “USE OF NO AND NO DONORS FOR TERMINATING DORMANCY IN INVERTEBRATES” (UNIVERSITEIT GENT, priority 2009, published 2012).
Counter-ions that a name gives are not always drawn.

How the values were obtained:
Type in all cases: in vivo
[1] = test system: eggs with diapaused embryos of Bombyx mori; test: Termination of embryonic diapause in eggs by NO gas; settings: 5 days after treatment
Procedure: All experiments were carried out on silkmoth strain Bombyx mori J106 (Lepidoptera: Bombycidae). Larvae were maintained on an artificial diet (Yakuruto co.) under standard conditions of 25° C., 65% relative humidity and 16 h light (Tazima, Y., 1978; Swevers et al., 2003). Egg batches were collected from a continuous insect colony and used for the experiments.
In a first series, a batch of 70 eggs with diapaused embryos of B. mori were submerged for 5 minutes in 20% HCl (in distilled water) at 48° C., and then the eggs were washed with distilled water and dried to the air. […] The latter treatment is the normally used procedure to break diapause in eggs with diapaused embryos for maintenance of the insect colony of B. mori (Tazima, Y., 1978; Swevers et al., 2003). In a water-control, a batch of 70 eggs with diapaused embryos was submerged in distilled water for 5 minutes at 45° C., and in a blank-control, the same procedure was followed, but without addition of water.
In parallel, 4 batches of 70 eggs each, were put in Pyrex glass bottles of 100 mL, which were sealed gastight by means of a rubber stop and a screw cap. Then the air was removed from these bottles by inserting a needle (in the rubber stop) connected to a vacuum pump. Using 50 ppmv (Parts Per Million by Volume) NO gas (with N2 as carrier gas, purchased from Air Liquide) dilution series were prepared (with air as dilutor) to obtain final NO concentrations of 20, 200, 2000 and 20000 ppbv, in these bottles. Verification of the NO concentrations was done by sampling from a parallel bottle that received the same gas mixture as the treatment bottle and NO content was determined by using a chemiluminescence detector (CLD 77 Amsp, Eco Physics). 30 minutes after insertion of the gas mixtures, the rubber stops were removed. These treatments were all performed at room temperature.
Development of the neonate larvae (=hatching of first instar larvae from eggs) was scored at daily intervals. The numbers of eggs with diapaused embryos per treatment (n) are given with the results.

[2] = test system: diapaused adults of Leptinotarsa decemlineata; test: Termination of adult diapause by NO gas
Procedure: All experiments were carried out on the Colorado potato beetle (potato beetle), Leptinotarsa decemlineata (Say) (Coleoptera: Chrysomelidae). Diapaused adult beetles were obtained by rearing larvae and pupae at 8 h light, 16 h dark, 25±2° C. and 70% relative humidity (Yi, et al., 2000). All life stages were fed potato (Solanum tuberosum L. ‘Bintje’) plants, that were refreshed daily. 15 days after adult emergence, the diapausing adults were placed in individual aluminum foil, 2.5-cm diameter ‘beakers’, containing fresh soil (Universal potting soil, Type 1, M. Snebbout n.v., Kaprijke, Belgium), and were stored at 4° C. in darkness.
Under red light, beetles were collected and put in Pyrex glass bottles of 100 mL, containing a layer of fresh soil. These bottles were wrapped in a double layer of aluminum foil to ensure complete darkness and sealed gastight by means of a rubber stop and a screw cap. The air was then removed by inserting a needle (in the rubber stop) connected to a vacuum pump. Using 50 ppmv NO gas (with N2 as carrier gas, purchased from Air Liquide), dilution series were prepared (with air as dilutor), and the desired final NO concentrations were injected in each bottle. A blank control, received ambient air only. Verification of the NO concentrations was done by sampling from a parallel bottle that received the same gas mixture as the treatment bottle. NO content was determined with a chemiluminescence detector (CLD 77 Amsp, Eco Physics). The treatments were all done at 4° C. in the dark and 30 minutes after insertion of the gas mixtures, the rubber stops were removed.
After the treatments, the beetles were collected in plastic containers (dimensions: 10×21×5 cm), containing fresh soil and potato leaves and kept at 25±3° C., 65% relative humidity and 8 h light (Exp. 1 and 2). In the last experiment (Exp 3), beetles were left at 4° C. in the dark for 6 hours before transfer to a 12° C. incubator, in the dark. The beetles that emerged were collected every day and the beetles' emergence per treatment (% of total) are given with the results.

[3] = test system: eggs with diapaused embryos of Bombyx mori; test: Termination of embryonic diapause in eggs dipped in NO donor or HCl; settings: SpermineNONOate 1 mM 30 min dip; 20% HCl 5 min 48° C.
Procedure: All experiments were carried out on silkmoth strain Bombyx mori J106 (Lepidoptera: Bombycidae). Larvae were maintained on an artificial diet (Yakuruto Co.) under standard conditions of 25° C., 65% relevant humidity and 16 h light ([…] et al., 2003). Egg batches were collected from a continuous insect colony and used for the experiments. […] The latter treatment is the normally used procedure to break diapause in eggs with diapaused embryos for maintenance of the insect colony of B. mori ([…] et al., 2003). In a water-control, eggs with diapaused embryos were dipped in distilled water only, and in a blank-control, eggs with diapaused were not treated. […] The numbers of eggs with diapaused embryos per treatment (n) are given with the results.

[4] = test system: Vinh Chau Artemia cysts (ARC VC 1742); test: Post-diapause development of Vinh Chau strain encysted Artemia embryos with NO donor
Procedure: Dry and processed embryos (cysts) from a strain of Artemia obtained in 2009 in the Soc Trang Province in the Mekong Delta (09° 19′48″ N-105° 58′11″ E) (Artemia Reference Center (ARC) code number VC 1742), were stored in the dark at 4° C. in tin cans, that were not resealed after the first opening. For the experiment, the cysts were grown at 26-28° C. with constant illumination in 25 ml of sea water under varying experimental conditions as detailed below.
(§1) To quantify nauplii (larvae) emergence and hatching (FIG. 1) which served as measures of cyst development, 6 samples of 250 μl were taken from each 50 ml tube after 10, 12, 14, 16, 18, 20, 22 and 24 h post incubation. Subsequently the obtained samples were mixed individually with 250 μl of sea water and 2 drops of Lugol's solution (Van Stappen, G, 1996) prior to counting nauplii (N) and umbrella (U) with the aid of a stereomicroscope.
(§2) The hatching percentage (H %) was calculated according to: […]
(§3) The hatching percentage plus (H^+%) was calculated according to: […]

[5] = test system: Maloye Yarovoye Artemia cysts (ARC MY 1732); test: Post-diapause development of Maloye Yarovoye strain encysted Artemia embryos with NO donor
Procedure: (§4) Encysted embryos (cysts) from a parthenogenetic strain of Artemia obtained in 2008 in Maloye Yarovoye (Altay Region: 53° 04′00″ N-79° 10′00″ E), Russia (Artemia Reference Center (ARC) code number MY 1732), were stored in the dark at 4° C. in dry sealed bags. For the experiment, the cysts were grown at 26-28° C. with constant illumination in 25 ml of sea water under varying experimental conditions as detailed below.
as §1, with “24” for “10, 12, 14, 16, 18, 20, 22”, “48 h.” for “24 h post incubation.”
as §2, §3

[6] = test system: Bolshoye Yarovoye Artemia cysts (ARC BY 1706); test: Post-diapause development of Bolshoye Yarovoye strain encysted Artemia embryos with NO donors; settings: for hatching after 24 hours: 40 and 60 μM, overcome by 48 hr; for concentration at which NO donor was most effective on cyst development: Bolshoye Yarovoye cysts, FIG. 2A-F
Procedure: as §4, with “winter 2005-2006” for “2008”, “Bolshoye” for “Maloye”, “52° 51′64″ N-78° 37′32″” for “53° 04′00″ N-79° 10′00″”, “BY 1706),” for “MY 1732),”
To quantify larval (nauplii) emergence and hatching (FIG. 1) which served as measures of cyst development, 6 samples of 250 μl from each 50 ml tube were mixed individually with 250 μl of sea water and 2 drops of Lugol's solution (Van Stappen, G, 1996) prior to counting nauplii (N) and umbrella (U) with the aid of a dissecting microscope. […] The extent of development was determined as the percent of developed cysts which was calculated as either the number of hatched larvae, or the number of hatched and emerged larvae, obtained from 100 cysts, the latter represented by the sum of hatched nauplii (larvae), emerged larvae and undeveloped cysts containing embryos.
as §2, §3
The percent of developed cysts was calculated as described above.

[7] = test system: resting eggs of Brachionus; test: Brachionus resting egg hatching
Procedure: Resting eggs of Brachionus were suspended in 20 ml seawater (25 g/l), supplemented with different concentrations of Sin-1 Chloride (1-60 μM) and put in a falcon tube. These tubes were put on a rotor at 28° C. under constant illumination. The effect on the hatching rate was measured after 48 hr and 72 hr of incubation, by counting emerged rotifers in function of the amount of NO donor added.

## nitric oxide [NO gas]
[1]; 0.02-20 ppmv NO, controls 0%
  eggs emerged: 27.1-37.1%
[1]; 0.02 ppmv NO
  Percentage of developing eggs: 37.1%
[1]; 0.20 ppmv NO
  Percentage of developing eggs: 35.7%
[1]; 2.00 ppmv NO
  Percentage of developing eggs: 31.4%
[1]; 20.0 ppmv NO
  Percentage of developing eggs: 27.1%
[2]; 0.300 ppmv, after 4 days, in diapause for 27 days, blank control 14.3%
  percentage of emerging adult beetles: 42.9%
[2]; 2.6 ppmv, 3 days after treatment, in diapause for 10 days
  percentage of emerging adult beetles: 20%
[2]; 2.6 ppmv, day 6, in diapause for 10 days
  percentage of emerging adult beetles: 40%
[2]; 6.1 ppmv, 3 days after treatment, in diapause for 10 days
  percentage of emerging adult beetles: 20%
[2]; 6.1 ppmv, day 6, in diapause for 10 days
  percentage of emerging adult beetles: 20%
[2]; 67.4 ppmv, after 4 days, in diapause for 10 days
  percentage of emerging adult beetles: 20%

## Cl [20% HCl]
[3]
  Number of developed neonates at day 6: 10
  Number of developed neonates at day 7: 36
  Number of developed neonates at day 8: 12
  Number of developed neonates at day 14: 0
  Number of undeveloped eggs at day 14: 14
  eggs developed into neonate larvae at 6-8 days after treatment (total): 81%
  percentage of developed neonates at day 14: (0%)

## CCCN(CCCN)N(O)N=O [Papa NONOate, 3-(2-hydroxy-2-nitroso-1-propylhydrazino)-1-propanamine]
[4]; 0.5 μM, 16 and 18 h post-treatment
  hatching percentage (H %) versus untreated control: significantly increased
[4]; 1 and 4 μM, 16 hours and more
  hatching percentage (H %) versus non-treated controls: comparable to the non-treated controls
[4]; Vinh Chau cysts
  optimal dose: 0.5 µM
[4]; all treatments (0.5, 1, 4 μM) at 12, 18 and 20 hours
  hatching percentage plus (H+%) versus non-treated controls: significantly increase
[5]; 4 μM, 48 h
  increase in number of nauplii compared to the control: ~5 fold
[5]; 4 μM, 48 h, control around 10%
  hatching percentage (H %): 47%
[5]; Maloye Yarovoye diapausing cysts
  optimal dose for inducing hatching: 4 µM
[6]
  hatching after 24 hours: inhibited hatching almost completely
  concentration at which NO donor was most effective on cyst development: 0.63 µM

## CC1(C)N([O])C(c2ccccc2)=[N+]([O-])C1(C)C [PTIO, 2-phenyl-4,4,5,5,-tetramethylimidazoline-1-oxyl 3-oxide]
[6]; 300 μM PTIO with 0.5 μM Papa NONOate, 6.0 μM Spermine NONOate or 6.0 μM Sin-1 chloride, 48 hr
  effect of NO scavenger on cyst development promoted by NO donors: inhibited cyst development

## [NH-]c1c[n+](N2CCOCC2)no1 [Sin-1 Chloride, 3-morpholine syndnonimine]
[7]; 1 μM, 48 hrs
  Percentage hatching of resting eggs: 12.34% (3.62)
[7]; 1 μM, 72 hrs
  Percentage hatching of resting eggs: 33.11% (2.66)
[7]; 6 μM, 48 hrs
  Percentage hatching of resting eggs: 18.93% (1.25)
[7]; 6 μM, 72 hrs
  Percentage hatching of resting eggs: 33.71% (0.66)
[7]; 10 μM, 72 hrs
  Percentage hatching of resting eggs: 37.17% (2.88)
[7]; 20 μM, 48 hrs
  Percentage hatching of resting eggs: 17.99% (3.18)
[7]; 20 μM, 72 hrs
  Percentage hatching of resting eggs: 32.38% (2.63)
[7]; 60 μM, 48 hrs
  Percentage hatching of resting eggs: 14.98% (3.52)
[7]; 60 μM, 72 hrs
  Percentage hatching of resting eggs: 27.57% (1.00)
[6]
  hatching after 24 hours: less dramatic, but obvious
  concentration at which NO donor was most effective on cyst development: 4.0 µM
